# Target: IGF-IR (Homo sapiens, UniProt P08069)
# Experiment: Western blot of IGF-IR autophosphorylation
# Format: cell-based
# Sequence of IGF-IR (P08069 31-736): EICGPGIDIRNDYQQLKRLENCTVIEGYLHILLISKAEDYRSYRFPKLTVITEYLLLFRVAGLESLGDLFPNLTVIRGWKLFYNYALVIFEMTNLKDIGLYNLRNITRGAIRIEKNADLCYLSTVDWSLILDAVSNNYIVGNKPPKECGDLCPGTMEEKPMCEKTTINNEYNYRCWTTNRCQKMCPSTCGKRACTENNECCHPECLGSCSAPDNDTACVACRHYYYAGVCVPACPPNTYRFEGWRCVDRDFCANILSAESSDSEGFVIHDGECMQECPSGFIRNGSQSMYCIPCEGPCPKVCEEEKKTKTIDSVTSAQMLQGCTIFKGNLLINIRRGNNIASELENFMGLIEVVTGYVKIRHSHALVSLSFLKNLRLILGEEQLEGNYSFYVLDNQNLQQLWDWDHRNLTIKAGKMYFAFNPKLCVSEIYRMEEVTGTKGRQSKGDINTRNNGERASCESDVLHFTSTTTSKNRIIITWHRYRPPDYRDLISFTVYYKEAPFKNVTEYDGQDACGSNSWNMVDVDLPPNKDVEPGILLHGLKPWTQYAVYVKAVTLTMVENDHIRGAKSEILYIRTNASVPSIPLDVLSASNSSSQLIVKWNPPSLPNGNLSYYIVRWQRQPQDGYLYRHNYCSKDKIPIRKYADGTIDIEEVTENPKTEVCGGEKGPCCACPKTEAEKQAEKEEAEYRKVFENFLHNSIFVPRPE
# Sequence of IGF-IR (P08069 741-1367): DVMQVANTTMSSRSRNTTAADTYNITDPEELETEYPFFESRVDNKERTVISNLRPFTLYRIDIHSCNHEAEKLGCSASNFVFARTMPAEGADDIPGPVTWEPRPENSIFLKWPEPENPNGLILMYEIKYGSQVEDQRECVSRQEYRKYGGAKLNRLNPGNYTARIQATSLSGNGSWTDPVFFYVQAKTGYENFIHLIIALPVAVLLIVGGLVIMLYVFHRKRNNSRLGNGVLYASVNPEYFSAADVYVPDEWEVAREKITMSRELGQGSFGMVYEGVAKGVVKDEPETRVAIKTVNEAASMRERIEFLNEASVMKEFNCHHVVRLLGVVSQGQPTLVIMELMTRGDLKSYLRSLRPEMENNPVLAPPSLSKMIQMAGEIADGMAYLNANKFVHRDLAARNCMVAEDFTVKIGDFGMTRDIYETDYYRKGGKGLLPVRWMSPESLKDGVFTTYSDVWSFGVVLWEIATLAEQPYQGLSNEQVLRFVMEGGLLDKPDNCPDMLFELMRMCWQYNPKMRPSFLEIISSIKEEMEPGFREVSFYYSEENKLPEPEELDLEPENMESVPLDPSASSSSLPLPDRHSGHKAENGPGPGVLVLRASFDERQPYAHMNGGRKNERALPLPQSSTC
structure (smiles),measurement,value
Cc1ccsc1C(=O)Nc1cc(CN2CCN(C(=O)CO)CC2)ccc1/C=C/c1n[nH]c2ccccc12 [KW-2450],IC50,< 2 nM

# — publication PMC4674309 (Molecular cancer therapeutics, 2015)
